IC50 data for 2 compounds are collected here from US7585855B2, “Bengamides with a substituted caprolactam cycle, method for the preparation thereof, compositions containing them and use thereof” (Aventis Pharma SA, priority 2004, dated 2009).

This test deals with Hep-G2 cells. In words: Inhibition of cell proliferation of Hep-G2 cells (intracellular ATP, CellTiterGlo). It is filed as cell-based. The note with it: Homo sapiens, HepG2, 72 hours incubation, ATP content, read-out: IC 50 (μM)/HEP G2. On the procedure:
The antiproliferative activity of product 3 was determined by measuring the inhibition of cell proliferation of Hep-G2 cells. The cells are subcultured in a cell culture medium at a concentration of 1000 cells per well, and incubated for 4 hours at 37° C. and 5% CO2.
Medium used for the Hep-G2 cell culture: Dubelcco's modified Eagle's medium/Ham mixture F12 (Gibco); NEAA (10%; nonessential amino acids, Gibco); sodium pyruvate (1%, Gibco); L-glutamine (1%, Gibco); fetal calf serum (5%; PAA).
After 4 hours, the test products dissolved in a DMSO/cell culture medium mixture are added at various concentrations and the resulting mixtures are incubated for 72 hours at 37° C. and 5% CO2. The intracellular ATP content was measured using the CellTiterGlo test reagent (Promega).
(In general: ATP-based viability assays read luminescence as a measure of living cells.)

Regarding `CCC(C)/C=C/[C@@H](O)[C@H](O)[C@@H](O)[C@@H](OC)C(=O)N[C@H]1CCCCN(Cc2ccccc2)C1=O` (stereo partly drawn) [Example 3, N-[(S)-1-(4-benzyl)-2-oxoperhydroazepin-3-yl]-(E)-(2R,3R,4S,5R)-3,4,5-trihydroxy-2-methoxy-8-methyldec-6-enamide], the IC50 was 0.02 µM. In the case of `CO[C@@H](C(=O)N[C@H]1CCCCNC1=O)[C@H](O)[C@@H](O)[C@H](O)/C=C/C(C)C` [Bengamide E], the IC50 was 7 µM.
